The values below are quoted from earlier work in paper PMC3178464 (Bioorganic & medicinal chemistry, 2009).

The data set concerns ER.

On to 17α-ethynylestradiol [EE2], for which the “affinity for ER relative to E2” value was “nearly three-fold higher affinity”.
